Laboratory results: patent publication US8431563B2 (priority 2010, dated 2013)
Structures can show the parent of a compound that is named as a salt.

Columns and labels:
[1] = target: T1, GKRP (Glucokinase Regulatory Protein) with human His-hepatic GK (Homo sapiens, UniProt Q14397); assay: GKRP NADPH Coupled Assay; format: biochemical; conditions: indirect measure of glucose-6-phosphate, fluorescence, 1 μM GKRP (10×), 20 nM GK (5×)
T1 sequence (Q14397 1-625): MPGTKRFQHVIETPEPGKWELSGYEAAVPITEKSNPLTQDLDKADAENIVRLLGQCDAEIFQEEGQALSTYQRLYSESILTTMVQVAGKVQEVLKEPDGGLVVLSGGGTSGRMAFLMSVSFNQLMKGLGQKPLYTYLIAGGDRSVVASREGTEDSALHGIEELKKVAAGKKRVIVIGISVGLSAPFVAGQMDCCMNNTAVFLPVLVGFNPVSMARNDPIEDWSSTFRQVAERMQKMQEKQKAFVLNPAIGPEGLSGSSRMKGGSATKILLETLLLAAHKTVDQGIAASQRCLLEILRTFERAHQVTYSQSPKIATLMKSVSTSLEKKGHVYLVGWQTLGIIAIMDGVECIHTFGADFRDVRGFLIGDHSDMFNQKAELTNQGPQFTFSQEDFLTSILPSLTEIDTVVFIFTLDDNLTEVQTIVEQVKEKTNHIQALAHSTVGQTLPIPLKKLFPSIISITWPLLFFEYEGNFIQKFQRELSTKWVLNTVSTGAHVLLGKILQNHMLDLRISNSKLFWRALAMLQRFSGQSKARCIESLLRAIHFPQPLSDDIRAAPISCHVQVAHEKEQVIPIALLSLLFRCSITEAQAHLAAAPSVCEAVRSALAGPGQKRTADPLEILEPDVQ
Outline: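 Human His-hepatic GK (5× stock 20 nM) in 50 mM Tris pH 7.5, 4 mM MgCl2, 6% DMSO, 0.1% BSA, 0.01% Brij-35, with GKRP and compound preincubated 30 min, then reaction 1 h at RT. Glucose-6-phosphate read indirectly via G6P dehydrogenase-coupled NADPH formation from β-NADP (2× stop/detection reagent, pH 9.2, 5 min).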

[2] = target: T1, GKRP (Glucokinase Regulatory Protein) with human His-hepatic GK; assay: GKRP LC MS/MS Biochemical Assay; conditions: 13C-glucose-6-phosphate formation, 1 μM GKRP (10×), 30 nM GK (5×)
Experimental: GKRP LC MS/MS Biochemical Assay
This assay is used to directly measure the formation of ^13C-glucose-6-phosphate from ^13C-glucose by liquid chromatography-mass spectrometry (LC MS/MS). Begin by preparing the following solutions: Compound Buffer (CB): 50 mM Tris, pH 7.5/4 mM MgCl2/6% DMSO/fresh 10 mM DTT from 1M frozen stock. Enzyme Buffer (EB): 50 mM Tris, pH 7.5/4 mM MgCl2/6% DMSO/fresh 0.1% BSA/fresh 0.01% Brij-35 (10% BSA and 1% Brij-35 stock). GK (Glucokinase) Working Stock (5×): Dilute human His-hepatic GK to 30 nM in EB buffer. […] After 30 minutes add 10 μl of GK Working Stock (5×). Re-seal the plate and incubate for another 30 minutes at room temperature while mixing. After the second 30 minutes, stop the reaction by the addition of 50 μl of 100% acetonitrile, seal, and mix for 5-10 minutes. Run 10 μl of this sample through the LC MS/MS (API 3200, Applied Biosystems Inc., Carlsbad, Calif.).

[3] = read-out: GK-GKRP EC50 (NADPH-coupled)
[4] = read-out: GK-GKRP EC50 (LC MS/MS)

Row | SMILES | EC50 ([1]; GK-GKRP EC50 (NADPH-coupled)) [µM] | EC50 ([2]; GK-GKRP EC50 (LC MS/MS)) [µM] | EC50 [1, 3] [µM] | EC50 [2, 4] [µM]
1 | CC[C@H]1CN(S(=O)(=O)c2cccs2)CCN1c1ccc(C(O)(C(F)(F)F)C(F)(F)F)cc1 [Example 63, 2-(4-((2S)-2-ethyl-4-(2-thiophenylsulfonyl)-1-piperazinyl)phenyl)-1,1,1,3,3,3-hexafluoro-2-propanol] | 0.679 | 1.37 | – | –
2 | O=S(=O)(c1cccs1)N1CCN(c2ccc(C(O)(C(F)(F)F)C(F)(F)F)cc2-c2ccsc2)CC1 [Example 73, 1,1,1,3,3,3-hexafluoro-2-(3-(3-thiophenyl)-4-(4-(2-thiophenylsulfonyl)-1-piperazinyl)phenyl)-2-propanol] | 3.5 | 1.9 | – | –
3 | CC(O)(c1ccc(N2CCN(S(=O)(=O)c3cccs3)CC2CN2CCOCC2)cc1)C(F)(F)F (mixture of isomers) [Example 61, 1,1,1-trifluoro-2-(4-(2-(4-morpholinylmethyl)-4-(2-thiophenylsulfonyl)-1-piperazinyl)phenyl)-2-propanol] | 0.23 | 0.355 | – | –
4 | C[C@H]1COCCN1CC1CN(S(=O)(=O)c2cccs2)CCN1c1ccc(C(C)(O)C(F)(F)F)cc1 (single isomer, unassigned) [Example 45 Peak #1] | 0.052 | 0.062 | – | –
5 | C[C@H]1CN(S(=O)(=O)c2nnc(N)s2)CCN1c1ccc(C(C)(O)C(F)(F)F)cc1 (mixture of isomers) [Example 35, 2-(4-((2S)-4-((5-amino-1,3,4-thiadiazol-2-yl)sulfonyl)-2-methyl-1-piperazinyl)phenyl)-1,1,1-trifluoro-2-propanol] | 3.04 | 5.62 | – | –
6 | CC1(C)CN(CC2CN(S(=O)(=O)c3cccs3)CCN2c2ccc(C(C)(O)C(F)(F)F)cc2)CCO1 (mixture of isomers) [Example 47, 2-(4-(2-((2,2-dimethyl-4-morpholinyl)methyl)-4-(2-thiophenylsulfonyl)-1-piperazinyl)phenyl)-1,1,1-trifluoro-2-propanol] | 0.182 | 0.295 | – | –
7 | O=S(=O)(c1cccs1)N1CCN(c2ccc(C(O)(C(F)(F)F)C(F)(F)F)cc2-c2ccccc2)CC1 [Example 69, 1,1,1,3,3,3-hexafluoro-2-(6-(4-(2-thiophenylsulfonyl)-1-piperazinyl)-3-biphenylyl)-2-propanol trifluoroacetate] | 2.12 | 1.75 | – | –
8 | CC(C)(O)C#Cc1cc(-c2ccc(C(C)(O)C(F)(F)F)cc2)ccc1S(=O)(=O)c1ccccc1 (racemic) [Example 20, 2-methyl-4-(4-(phenylsulfonyl)-4′-(2,2,2-trifluoro-1-hydroxy-1-methylethyl)-3-biphenylyl)-3-butyn-2-ol] | 1.8 | 2.25 | – | –
9 | CC(O)(c1ccc(N2CCN(S(=O)(=O)c3cccs3)CC2CC2CCOCC2)cc1)C(F)(F)F (single isomer, unassigned) [Example 37 Peak #2, 1,1,1-trifluoro-2-(4-(2-(tetrahydro-2H-pyran-4-ylmethyl)-4-(2-thiophenylsulfonyl)-1-piperazinyl)phenyl)-2-propanol] | 0.124 | 0.128 | – | –
10 | O=S(=O)(c1ccccc1F)N1CCN(c2ccc(C(O)(C(F)(F)F)C(F)(F)F)cc2)CC1 [Example 6, 1,1,1,3,3,3-hexafluoro-2-(4-(4-((2-fluorophenyl)sulfonyl)-1-piperazinyl)phenyl)-2-propanol] | 1.88 | 1.52 | – | –
11 | CC(O)(c1ccc(N2CCN(S(=O)(=O)c3cccs3)C[C@@H]2Cc2ccccc2)cc1)C(F)(F)F (single isomer, unassigned) [Example 65 Peak #1] | 0.367 | 0.643 | – | –
12 | CC(O)(c1ccc(N2CCN(S(=O)(=O)c3cccs3)CC2CC2CCOCC2)cc1)C(F)(F)F (single isomer, unassigned) [Example 37 Peak #1, 1,1,1-trifluoro-2-(4-(2-(tetrahydro-2H-pyran-4-ylmethyl)-4-(2-thiophenylsulfonyl)-1-piperazinyl)phenyl)-2-propanol] | 0.111 | 0.162 | – | –
13 | CC(O)(c1ccc(N2CCN(S(=O)(=O)c3ccccc3)CC2CC2CCOCC2)cc1)C(F)(F)F (stereo not shown) [Example 41, 1,1,1-trifluoro-2-(4-(4-(phenylsulfonyl)-2-(tetrahydro-2H-pyran-4-ylmethyl)-1-piperazinyl)phenyl)-2-propanol] | – | – | 0.785 | 0.572
14 | O=S(=O)(c1ccccc1)c1ccc(-c2ccc(C(O)(C(F)(F)F)C(F)(F)F)cc2)cc1 [Example 21, 1,1,1,3,3,3-hexafluoro-2-(4′-(phenylsulfonyl)-4-biphenylyl)-2-propanol] | 1.66 | 3.96 | – | –
15 | C[C@H]1CN(S(=O)(=O)c2ccccc2)CCN1c1ccc(C(C)(O)C(F)(F)F)cc1 (mixture of isomers) [Example 28, 1,1,1-trifluoro-2-(4-((2S)-2-methyl-4-(phenylsulfonyl)-1-piperazinyl)phenyl)-2-propanol] | 3.12 | 4.01 | – | –
16 | CC(O)(c1ccc(N2CCN(S(=O)(=O)c3ccccc3)CC2)cc1)C(F)(F)F (racemic) [Example 24, 1,1,1-trifluoro-2-(4-(4-(phenylsulfonyl)-1-piperazinyl)phenyl)-2-propanol] | 1.84 | 3.96 | – | –
17 | CC(O)(c1ccc(N2CCN(S(=O)(=O)c3cccs3)CC2Cc2ccncc2)cc1)C(F)(F)F (mixture of isomers) [Example 76, 1,1,1-trifluoro-2-(4-(2-(4-pyridinylmethyl)-4-(2-thiophenylsulfonyl)-1-piperazinyl)phenyl)-2-propanol trifluoroacetate] | 0.207 | 0.522 | – | –
18 | CC(O)(c1ccc(N2CCN(S(=O)(=O)c3cccs3)CC2CC2CCCCC2)cc1)C(F)(F)F (mixture of isomers) [Example 58, 2-(4-(2-(cyclohexylmethyl)-4-(2-thiophenylsulfonyl)-1-piperazinyl)phenyl)-1,1,1-trifluoro-2-propanol] | – | – | 1 | 1.32
19 | CC(O)(c1ccc(N2CCN(S(=O)(=O)c3cccs3)CC2c2cc(Cl)ccc2Cl)cc1)C(F)(F)F (mixture of isomers) [Example 13, 2-(4-(2-(2,5-dichlorophenyl)-4-(2-thiophenylsulfonyl)-1-piperazinyl)phenyl)-1,1,1-trifluoro-2-propanol] | 2.64 | 1.96 | – | –
20 | Cn1ccc(S(=O)(=O)N2CCN(c3ccc(C(O)(C(F)(F)F)C(F)(F)F)cc3)CC2)n1 [Example 5, 1,1,1,3,3,3-hexafluoro-2-(4-(4-((1-methyl-1H-pyrazol-3-yl)sulfonyl)-1-piperazinyl)phenyl)-2-propanol] | 1.58 | 5.38 | – | –
21 | Cc1cccc(CC2CN(S(=O)(=O)c3cccs3)CCN2c2ccc(C(O)(C(F)(F)F)C(F)(F)F)cc2)c1 (racemic) [Example 42, 1,1,1,3,3,3-hexafluoro-2-(4-(2-(3-methylbenzyl)-4-(2-thiophenylsulfonyl)-1-piperazinyl)phenyl)-2-propanol hydrochloride] | 0.724 | 0.688 | – | –
22 | O=S(=O)(c1cccc(Cl)c1)N1CCN(c2ccc(C(O)(C(F)(F)F)C(F)(F)F)cc2)CC1 [Example 9, 2-(4-(4-(3-chlorophenylsulfonyl)piperazin-1-yl)phenyl)-1,1,1,3,3,3-hexafluoro-2-propanol] | 4.41 | 3.71 | – | –
23 | O=S(=O)(c1c[nH]cn1)N1CCN(c2ccc(C(O)(C(F)(F)F)C(F)(F)F)cc2)CC1 [Example 60, 1,1,1,3,3,3-hexafluoro-2-(4-(4-(1H-imidazol-4-ylsulfonyl)-1-piperazinyl)phenyl)-2-propanol] | 2.34 | 2.32 | – | –
